The conditions of series [1]: bypassing dCK deficiency, reference [5]; cited from earlier work.
In series [2] the test system is PANC-1 cells. The series can be described thus: Flow cytometry-based binding assay, apparent dissociation constant (KD) of Cy3-labeled aptamers. Particulars: flow cytometry MFI, one-site binding model, read-out: binding affinity (dissociation constant, KD). The method, then: FIGS. 1A-1D. ApDCs of gemcitabine and 5-FU. (FIG. 1A) Chemical structure of gemcitabine and 5-FU prodrug (5F-dUTP). (FIG. 1B) The sequence of P19 incorporated with dFdCMP (dFdCTP) (SEQ ID NO: 18) and 5FdUMP (5FdUTP) (SEQ ID NO: 19) into P19, instead of 2′F-CTP and 2′F-UTP. (FIG. 1C) Intrinsic incorporation of active metabolites of gemcitabine (dFdCMP) and 5FdUMP in P19. M: Marker. 1:P19, 2: P19-dFdCMP, 3:P19-5FdUMP. (FIG. 1D) The dissociation constant (KD) was measured by flow cytometry using increasing concentrations of Cy3-labeled aptamers (from 15.6 to 1000 nM). Mean fluorescence intensity (MFI) was measured and calculated using a one-site binding model for non-linear regression.
FIGS. 4A-4C. […] Mean fluorescence intensity (MFI) was measured and calculated using a one-site binding model for non-linear regression. […] (FIG. 4B) The pancreatic cell lines PANC-1 and AsPC-1 were treated with 200 nM of the Cy3-labeled tP19 aptamer and analyzed by confocal microscopy. […]
Aptamer binding and uptake was also assessed by flow cytometry. […] Cells were washed with binding buffer and immediately analyzed by Fortessa flow cytometry (BD). […] The data were analyzed with FlowJo software.
To determine the apparent dissociation constant (KD) of aptamers to PANC-1 cells, the mean fluorescence intensity (MFI) was calculated for each concentration and for the unselected library controls. […]
In general terms: In flow cytometry, cells or beads pass a laser one at a time.

Series [3] deals with PANC-1 cells. The series can be described thus: Live-cell confocal imaging, aptamer internalization. Particulars: Cy3-labeled RNAs at 200 nM, 2 hour, confocal microscopy. It counts as cell-based. The method, then:
FIGS. 2A-2D. Cell proliferation assay of dFdC-P19-ApDC and 5FdU-P19-ApDC. (FIGS. 2A-2B) The pancreatic cell lines PANC-1 were treated with 200 nM of the Cy3-labeled dFdCMP-P19-ApDC (FIG. 2A) or 5FdUMP-P19-ApDC (FIG. 2B) and analyzed by confocal microscopy. […] Dyes: Cy3 labeled RNAs, Hoechst 33342. Scale bar: […]. (FIG. 2C) After treatment dFdCMP-P19-ApDC or 5FdUMP-P19-ApDC in PANC-1 cells for 72 hrs, cell viability was measured by MTT assay. One-way ANOVA test: ****≤0.0001, ***≤0.001. (FIG. 2D) After treatment dFdCMP-P19-ApDC or 5FdUMP-P19-ApDC in chemo-resistance AsPC-1 cells for 72 hrs, cell viability was measured by MTT assay. One-way ANOVA test: ****≤0.0001, ***≤0.001
(§1) FIGS. 4A-4C. Binding affinity and cell internalization of truncated P19 (tP19). (FIG. 4A) The dissociation constant (KD) was measured by flow cytometry using increasing concentrations of Cy3-labeled aptamers (from 15.6 to 500 nM). Mean fluorescence intensity (MFI) was measured and calculated using a one-site binding model for non-linear regression. […] (FIG. 4B) The pancreatic cell lines PANC-1 and AsPC-1 were treated with 200 nM of the Cy3-labeled tP19 aptamer and analyzed by confocal microscopy. […] (FIG. 4C) Non pancreatic lines including Huh7, HepG2, MCF7 and PC3 cells were also treated with 200 nM of Cy3-labeled tP19 and P1 aptamers. […] Dye Hoechst 33342. Scale bar: 10 μm.
FIGS. 5A-5D. […]

Series [4] has as its system AsPC-1 cells. The description is as above. The class given is cell-based. Particulars: 200 nM Cy3-labeled aptamer, confocal microscopy. The method, then:
as §1
(§2) For the aptamer internalization studies, 1×10^5 cells were seeded in 35 mm glass-bottom dishes (MatTek, Ashland, Mass., USA) and grown in medium for 24 hrs. The RNAs were labeled with Cy3 using the Cy3 Silencer siRNA labeling kit (Ambion, Tex., USA.). Cy3-labeled RNAs were added to the cells at 200 nM or 500 nM and incubated for 2 hour. The images were taken using a Zeiss LSM 510 Meta Inverted 2 photon confocal microscope system using a C-Apo 40x/1.2NA water immersion objective.

Series [5] relates to Huh7, HepG2, MCF7 and PC3 cells. The series can be described thus: Live-cell confocal imaging, aptamer internalization in non pancreatic lines. Particulars: 200 nM Cy3-labeled aptamer. The class given is cell-based. The method, then:
as §1, §2

“Also recorded” adds a separate entry of the source.

Consider gemcitabine monophosphate [dFdCMP], for which, in series [1], the “effectiveness relative to dFdC” value is given as 4 fold.

On to “tP19: truncated form of aptamer P19, SEQ ID NO: 3, 28 bps in length, mHSP70 binding aptamer (CUCAAUGGCGAAUGCCCGCCUAAUAGGG; listed as RNA, chemistry not fully specified)”, for which, in series [2], the Kd is 8.57 nM. For the same molecule, the “internalization into PANC-1 cells” value in series [3] is “internalized into PANC-1 and AsPC-1 cells”. In addition, the “internalization into AsPC-1 cells” value in series [4] was “internalized into PANC-1 and AsPC-1 cells”. For the same molecule, in series [5], the “internalization (Cy3 signal) in non-pancreatic cancer cell lines” value is recorded as “No Cy3 signal was observed; also recorded: not in non-pancreatic cancer cell lines”.

B1: P1: RNA aptamer SEQ ID NO: 1, mHSP70 binding aptamer internalizing upon binding mHSP70 at the cell surface (nucleic acid)
chain: GGGAGACAAGAAUAAACGCUCAAUGCGCUGAAUGCCCAGCCGUGAAAGCGUCGAUUUCCAUCCUUCGACAGGAGGCUCACAACAGGC
modifications: listed as RNA, chemistry not fully specified
B1: the “internalization (Cy3 signal) in non-pancreatic cancer cell lines” value in series [5] was “No Cy3 signal was observed”.

The values above are taken from patent US11845938B2, “Aptamer compositions and the use thereof” (City of Hope, priority 2016, dated 2023).
